Assay results from US20210317092A1 (BAYER PHARMA AKTIENGESELLSCHAFT, priority 2016, published 2021).
pIC50: −log10 of the molar value. Where two headings read alike, the source gives them in different places.

What was measured:
[1] = biological target: T1, native human Bradykinin B1 receptor (Homo sapiens, UniProt P46663); experiment: Calcium flux Assay (FLIPR) with human fibroblasts expressing Bradykinin B1 receptor (hB1 IMR-90); format: cell-based; conditions: IMR-90 human fibroblasts expressing native Bradykinin B1 receptor
T1 construct: which express native human Bradykinin B1 receptor after induction with human IL-10; Coriell Institute; host or cells: IMR-90 human foetal lung fibroblasts, cytokine-induced
T1 sequence (P46663 1-353): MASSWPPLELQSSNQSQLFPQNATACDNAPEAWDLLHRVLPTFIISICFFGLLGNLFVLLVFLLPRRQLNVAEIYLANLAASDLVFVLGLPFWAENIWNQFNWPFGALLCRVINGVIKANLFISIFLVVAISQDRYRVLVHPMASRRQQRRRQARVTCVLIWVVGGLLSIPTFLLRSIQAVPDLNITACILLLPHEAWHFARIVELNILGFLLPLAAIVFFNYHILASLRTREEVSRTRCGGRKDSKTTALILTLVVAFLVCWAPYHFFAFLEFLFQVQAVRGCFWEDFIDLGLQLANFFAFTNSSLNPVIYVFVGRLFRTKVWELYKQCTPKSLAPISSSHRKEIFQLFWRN
Outline: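 IMR-90 human foetal lung fibroblasts induced with 0.35 ng/mL […] for 3 h, Fluo-4/AM-loaded, preincubated with compound (8 concentrations, triplicate) for 30 min at 28 °C, then challenged with Lys-(Des-Arg)-bradykinin at EC90. Ca2+ fluorescence was read at 538 nm; full inhibition set by 20 µM Lys-(Des-Arg-Leu)-bradykinin; IC50 derived.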

[2] = biological target: T2, human Bradykinin B1 receptor (Homo sapiens, UniProt P46663); experiment: Calcium flux Assay (FLIPR) with recombinant CHO-K1 cells expressing human Bradykinin B1 receptor, in presence (hB1 IC50) or absence (hB1 free IC50) of 0.1% BSA; format: cell-based
T2 construct: host or cells: CHO-K1
T2 sequence (P46663 1-353): T1 sequence (P46663 1-353)

[3] = in absence of 0.1% BSA, read-out: hB1 free IC50
[4] = in presence of 0.1% BSA, read-out: hB1 IC50

Row | SMILES | pIC50 [1] | pIC50 [2, 3] | pIC50 [2, 4]
1 | O=C(Nc1ccc(-c2ccc(C(F)(F)F)nc2)c(-c2nnn[nH]2)c1)C1(c2ccc(F)c(F)c2)CC1 [Example 193, 1-(3,4-difluorophenyl)-N-{3-(1H-tetrazol-5-yl)-4-[6-(trifluoromethyl)pyridin-3-yl]phenyl} cyclopropane-carboxamide] | 7.09 | 7.02 | –
2 | O=C(Nc1ccc(-c2cnc(C(F)(F)F)nc2)c(-c2nnn[nH]2)c1)C1(c2cccc(Cl)c2)CC1 [Example 196, 1-(3-chlorophenyl)-N-{3-(1H-tetrazol-5-yl)-4-[2-(trifluoromethyl)pyrimidin-5-yl]phenyl} cyclopropane-carboxamide] | 5.84 | 6.12 | 5.86
3 | CC(F)(F)c1ccc(-c2ccc(NC(=O)C3(c4cccc(Cl)c4)CC3)cc2-c2nnn[nH]2)cn1 [Example 202, 1-(3-chlorophenyl)-N-{4-[6-(1,1-difluoroethyl)pyridin-3-yl]-3-(1H-tetrazol-5-yl)phenyl} cyclopropane-carboxamide] | 7.29 | 7.08 | –
4 | O=C(Nc1ccc(-c2ccc(C(F)(F)F)nc2)c(-c2nnn[nH]2)c1)C1(c2ccc(Cl)cc2)CC1 [Example 203, 1-(4-chlorophenyl)-N-{3-(1H-tetrazol-5-yl)-4-[6-(trifluoromethyl)pyridin-3-yl]phenyl} cyclopropane-carboxamide] | 7.44 | 7.04 | –
5 | O=C(Nc1ccc(-c2ccc(C(F)F)nc2)c(-c2nnn[nH]2)c1)C1(c2ccc(F)c(F)c2)CC1 [Example 207, N-{4-[6-(difluoromethyl)pyridin-3-yl]-3-(1H-tetrazol-5-yl)phenyl}-1-(3,4-difluorophenyl) cyclopropane-carboxamide] | 7.83 | 7.65 | –
6 | Cc1ccc(-c2ccc(NC(=O)C3(c4cccc(Cl)c4)CC3)cc2-c2nnn[nH]2)cn1 [Example 208, 1(3-chlorophenyl)-N-[4-(6-methylpyridin-3-yl)-3-(1H-tetrazol-5-yl)phenyl] cyclopropane-carboxamide] | 7.95 | 7.65 | 7.80
7 | Cc1ccc(-c2ccc(NC(=O)C3(c4ccc(C(F)(F)F)cc4F)CC3)cc2-c2nnn[nH]2)cn1 [Example 209, 1-[2-fluoro-4-(trifluoromethyl)phenyl]-N-[4-(6-methylpyridin-3-yl)-3-(1H-tetrazol-5-yl)phenyl] cyclopropane-carboxamide] | 8.52 | 8.53 | –
8 | Cc1cc(-c2ccc(NC(=O)C3(c4cccc(Cl)c4F)CC3)cc2-c2nnn[nH]2)ccn1 [Example 211, 1-(3-chloro-2-fluorophenyl)-N-[4-(2-methylpyridin-4-yl)-3-(1H-tetrazol-5-yl)phenyl] cyclopropane-carboxamide] | 7.72 | 7.98 | 7.64
9 | Cc1cc(-c2ccc(NC(=O)C3(c4ccc(C(F)(F)F)cc4F)CC3)cc2-c2nnn[nH]2)ccn1 [Example 212, 1-[2-fluoro-4-(trifluoromethyl)phenyl]-N-[4-(2-methylpyridin-4-yl)-3-(1H-tetrazol-5-yl)phenyl] cyclopropane carboxamide] | 8.41 | 8.56 | –
10 | Cn1ncc2ccc(-c3ccc(NC(=O)C4(c5cccc(Cl)c5)CC4)cc3-c3nnn[nH]3)cc21 [Example 213, 1-(3-chlorophenyl)-N-[4-(1-methyl-1H-indazol-6-yl)-3-(1H-tetrazol-5-yl)phenyl] cyclopropane-carboxamide] | 7.61 | 7.74 | 7.20
11 | Cn1ncc2ccc(-c3ccc(NC(=O)C4(c5cccc(Cl)c5F)CC4)cc3-c3nnn[nH]3)cc21 [Example 214, 1-(3-chloro-2-fluorophenyl)-N-[4-(1-methyl-1H-indazol-6-yl)-3-(1H-tetrazol-5-yl)phenyl] cyclopropane carboxamide] | 7.57 | 8.10 | 7.33
12 | Cn1ncc2ccc(-c3ccc(NC(=O)C4(c5ccc(C(F)(F)F)cc5F)CC4)cc3-c3nnn[nH]3)cc21 [Example 215, 1-[2-fluoro-4-(trifluoromethyl)phenyl]-N-[4-(1-methyl-1H-indazol-6-yl)-3-(1H-tetrazol-5-yl)phenyl] cyclopropane-carboxamide] | 8.07 | 8.49 | –
13 | CCn1cc(-c2ccc(NC(=O)C3(c4cccc(Cl)c4)CC3)cc2-c2nnn[nH]2)cn1 [Example 216, 1-(3-chlorophenyl)-N-[4-(1-ethyl-1H-pyrazol-4-yl)-3-(1H-tetrazol-5-yl)phenyl] cyclopropane-carboxamide] | 7.41 | 7.39 | –
14 | CCOc1ccc(-c2ncc(NC(=O)C3(c4cccc(Cl)c4)CC3)cc2-c2nnn[nH]2)cn1 [Example 218, 1-(3-chlorophenyl)-N-[6′-ethoxy-3-(1H-tetrazol-5-yl)-2,3′-bipyridin-5-yl]cyclopropane carboxamide] | 7.50 | 6.58 | 7.12
15 | O=C(Nc1cc(-c2nnn[nH]2)c(-c2ccc(C(F)(F)F)nc2)cc1O)C1(c2ccc(F)c(Cl)c2)CC1 [Example 220, 1-(3-chloro-4-fluorophenyl)-N-{2-hydroxy-5-(1H-tetrazol-5-yl)-4-[6-(trifluoromethyl)pyridin-3-yl]phenyl} cyclopropane-carboxamide] | 7.64 | 7.56 | 7.30
16 | O=C(Nc1cc(-c2nnn[nH]2)c(-c2ccc(C(F)(F)F)nc2)cc1O)C1(c2cc(Cl)ccc2F)CC1 [Example 222] | 7.25 | – | 7.12
17 | O=C(Nc1cc(-c2nnn[nH]2)c(-c2ccc(C(F)(F)F)nc2)cc1O)C1(c2ccc(Cl)c(F)c2)CC1 [Example 224, 1-(4-chloro-3-fluorophenyl)-N-{2-hydroxy-5-(1H-tetrazol-5-yl)-4-[6-(trifluoromethyl)pyridin-3-yl]phenyl} cyclopropane-carboxamide] | 6.97 | – | 7.30
18 | CCOc1ccc(-c2cc(O)c(NC(=O)C3(c4ccc(Cl)cc4)CC3)cc2-c2nnn[nH]2)cn1 [Example 227, 1-(4-chlorophenyl)-N-[4-(6-ethoxypyridin-3-yl)-2-hydroxy-5-(1H-tetrazol-5-yl)phenyl] cyclopropane-carboxamide] | 6.75 | – | 7.08
19 | COc1ccc(-c2c(F)cc(NC(=O)C3(c4ccc(C(F)(F)F)cc4)CC3)cc2-c2nnn[nH]2)cc1OC [Example 232, N-[2-Fluoro-3′,4′-dimethoxy-6-(1H-tetrazol-5-yl)biphenyl-4-yl]-1-[4-(trifluoromethyl)phenyl] cyclopropane-carboxamide] | 8.17 | 8.08 | 7.73
20 | COc1cc(-c2ccc(NC(=O)C3(c4cccc(Cl)c4)CC3)cc2-c2nnn[nH]2)ccc1C(F)(F)F [Example 233, 1-(3-chlorophenyl)-N-[3′-methoxy-2-(1H-tetrazol-5-yl)-4′-(trifluoromethyl)biphenyl-4-yl]cyclopropane carboxamide] | 7.45 | 7.72 | 7.16
21 | COc1ccc(-c2c(F)cc(NC(=O)C3(c4cccc(Cl)c4)CC3)cc2-c2nnn[nH]2)cc1OC [Example 234, 1-(3-Chlorophenyl)-N-[2-fluoro-3′,4′-dimethoxy-6-(1H-tetrazol-5-yl)biphenyl-4-yl]cyclopropane carboxamide] | 7.73 | 7.96 | 7.52
22 | CCOc1ccc(-c2c(F)cc(NC(=O)C3(c4cccc(Cl)c4)CC3)cc2-c2nnn[nH]2)cn1 [Example 236, 1-(3-chlorophenyl)-N-[4-(6-ethoxypyridin-3-yl)-3-fluoro-5-(1H-tetrazol-5-yl)phenyl] cyclopropane-carboxamide] | 7.81 | 8.54 | –
23 | CCOc1ccc(-c2c(F)cc(NC(=O)C3(c4ccc(C(F)(F)F)cc4F)CC3)cc2-c2nnn[nH]2)cn1 [Example 240, N-[4-(6-ethoxypyridin-3-yl)-3-fluoro-5-(1H-tetrazol-5-yl)phenyl]-1-[2-fluoro-4-(trifluoromethyl)phenyl] cyclopropane-carboxamide] | 8.55 | 8.63 | –
24 | O=C(Nc1cc(F)c(-c2ccc(C(F)(F)F)nc2)c(-c2nnn[nH]2)c1)C1(c2cccc(Cl)c2)CC1 [Example 241, 1-(3-chlorophenyl)-N-{3-fluoro-5-(1H-tetrazol-5-yl)-4-[6-(trifluoromethyl)pyridin-3-yl]phenyl} cyclopropane-carboxamide] | 6.90 | 7.27 | –
25 | O=C(Nc1cc(F)c(-c2ccc(C(F)(F)F)nc2)c(-c2nnn[nH]2)c1)C1(c2ccc(C(F)(F)F)cc2F)CC1 [Example 242, N-{3-fluoro-5-(1H-tetrazol-5-yl)-4-[6-(trifluoromethyl)pyridin-3-yl]phenyl}-1-[2-fluoro-4-(trifluoromethyl)phenyl] cyclopropane-carboxamide] | 7.64 | 8.01 | –
26 | O=C(Nc1cc(F)c(-c2ccnc(C(F)(F)F)c2)c(-c2nnn[nH]2)c1)C1(c2cccc(Cl)c2)CC1 [Example 243, 1-(3-chlorophenyl)-N-{3-fluoro-5-(1H-tetrazol-5-yl)-4-[2-(trifluoromethyl)pyridin-4-yl]phenyl} cyclopropane-carboxamide] | 6.24 | 6.69 | –
